Experiments:
[1] = target: T1, galectin-3 (Homo sapiens, UniProt P17931); assay: Fluorescence anisotropy assay, galectin-3; assay type: binding; conditions: MIC = inhibitor concentration bringing bound probe to 50%; Fig. 4
Experimental: FA was used to analyze interactions of probes and ligands with galectins in solution, as described before ([41][–][44]). A PheraStarFS plate reader, with software PHERAstar Mars version 2.10 R3 (BMG, Offenburg, Germany), was used, and FA of fluorescein-tagged saccharide probes was measured with excitation at 485 nm and emission at 520 nm.
The anisotropy (A) is given in units of mA, where the theoretical maximum is 400, and the value for free fluorescein typically 23. All conditions were measured in at least two duplicate wells.
In this study, the effect of inhibitors of the saccharide probe/galectin interaction was tested in two ways. In the first, a fixed low concentration of fluorescein-tagged probe (0.1 μM) and galectin were mixed with a range of concentrations of inhibitor. An optimal probe was chosen for each galectin to permit use of as low as possible concentration of galectin, while still achieving a sufficient rise in anisotropy for a reliable measuring range ([42][–][44]). […] With structurally defined inhibitors (pure synthetic galacto-oligosaccharides, small galactomannans, and reference ligands) the molecular mass, molar concentrations, and number of binding sites (in this case one binding site per ligand) were known and their dissociation constants (Kd) could therefore be directly calculated, using the data from the FA assay as described in Sörme et al. ([41]). […] Even if the molar concentration of the inhibitor is not known, the anisotropy value at a given condition permits calculation of the molar concentration of free galectin, as described below, and from this what fraction of the galectin is bound by a given mass per volume concentration of inhibitor. From this, the ratio of the molar concentration of the free inhibitor binding sites to their Kd value can be calculated, even if the FA assay cannot distinguish between the case when this is due to a few high affinity binding sites in the polysaccharide fraction or many of low affinity.

[2] = target: T1, galectin-3; assay: Galectin-3-induced hemagglutination of hen erythrocytes in V-shaped microplates; assay type: cell-based; conditions: for Estimated MIC, inhibition of galectin-3-induced hemagglutination, V-plate: MIC given as concentration interval
Experimental: Hemagglutination by galectin-3 was investigated in two assays, hemagglutination in V-shaped microplates (96 wells) and hemagglutination in gel cards described by Nowak et al. ([47]) and Lapierre et al. ([48]), respectively. Briefly, fresh hen blood in Alsever's solution was washed with 0.15 M NaCl, whereupon a 4% erythrocyte solution (by volume in PBS) was prepared and incubated with 1 mg/ml trypsin at 37 °C for 1 h. The cells were then washed with 0.15 M NaCl. The erythrocytes were diluted and preserved as a 10% solution in ID-CellStab solution. For the hemagglutination in V-shaped microplates, 1 volume of erythrocyte suspension in PBS (final concentration 0.6%), 1 volume of galectin solution, 1 volume of 0.15 M NaCl with or without the galectin inhibitor, and 1 volume of 1% bovine serum albumin (BSA) in 0.15 M NaCl were added to each well of the microplate. The plate was then shaken vigorously for 90 min at room temperature and then left standing still for at least 90 min before observing the hemagglutination status in each well. […] Each mixture was then transferred to individual gel card wells, whereupon the cards were centrifuged for 10 min at 85 × g in an ID-Centrifuge (DiaMed GmbH) and thereafter photographed and analyzed for hemagglutination.

[3] = tested on: galectin-3 accumulation in JIMT-1 cells; assay: Inhibition of GPN-induced galectin-3 accumulation around disrupted lysosomes; assay type: cell-based, human; conditions: 1 or 10 μM for 24 h, then 0.3 mM GPN 12 min, positive control
Experimental: The cells were, after the GPN treatment, quickly washed with PBS and fixed with 3.7% formaldehyde for 15 min before blocking/permeabilization with 1% Tween® 20 and 1–5% BSA in PBS for at least 45 min. […] The cell nuclei were visualized by staining with the DNA-binding fluorescent agent bisbenzimide (Hoechst). The coverslips were finally mounted on glass slides using Mowiol® 4-88 and left at 8 °C overnight to solidify before examination. The samples were imaged with an LSM-510 confocal laser scanning microscope (Carl Zeiss Microscopy GmbH, Oberkochen, Germany) equipped with a Hamamatsu R6357 photomultiplier (Hamamatsu Photonics K.K., Hamamatsu, Japan).

T1 sequence (P17931 whole entry): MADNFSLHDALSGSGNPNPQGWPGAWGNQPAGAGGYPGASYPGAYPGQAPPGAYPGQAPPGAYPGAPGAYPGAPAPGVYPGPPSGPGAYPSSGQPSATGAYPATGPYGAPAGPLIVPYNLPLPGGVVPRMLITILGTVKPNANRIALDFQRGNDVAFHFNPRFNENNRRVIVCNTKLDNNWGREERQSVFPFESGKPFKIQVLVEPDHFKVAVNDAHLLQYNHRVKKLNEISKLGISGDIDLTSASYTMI

slope of MIC versus galectin-3 concentration, FA assay [1]: around 1
Estimated MIC, inhibition of galectin-3-induced hemagglutination, V-plate ([2]; 1 μM galectin-3): 0.25 to 0.74 µM
Estimated MIC, inhibition of galectin-3-induced hemagglutination, V-plate ([2]; 5 μM galectin-3): 2.22 to 6.67 µM
slope of MIC versus galectin-3 concentration, hemagglutination ([2]; V-shaped microtiter plates, Fig. 4): around 1
SMILES: OC[C@H]1O[C@@H](S[C@@H]2O[C@H](CO)[C@H](O)[C@H](n3cc(-c4cccc(F)c4)nn3)[C@H]2O)[C@H](O)[C@@H](n2cc(-c3cccc(F)c3)nn2)[C@H]1O [33DFTG, 3,3′-Dideoxy-3,3′-bis-[4-(3-fluorophenyl)-1H-1,2,3-triazol-1-yl]-1,1′-sulfanediyl-di-β-D-galactopyranoside]
inhibition of GPN-induced galectin-3 accumulation [3]: inhibit the galectin-3 accumulation

Reference: paper PMC4933242, “Low or No Inhibitory Potency of the Canonical Galectin Carbohydrate-binding Site by Pectins and Galactomannans*” (The Journal of Biological Chemistry, 2016)
